PubChem BioAssay AID330 (DTP/NCI, 2004)
Where “and” joins values, the source holds several entries; their conditions need not be identical. Equal entries are not always repeated. Inconclusive results and toxic doses are left out. How the source made its calls: active means survival T/C of 150% or more; inactive means T/C below 125% in these data.

System: P388 leukemia ip, CD2F1 mice, survival T/C
Assay: NCI In Vivo Anticancer Drug Screen. Data for tumor model P388 Leukemia (intraperitoneal) in CD2F1 (CDF1) mice
Settings: endpoint: median survival time, higher = longer survival
Method in brief: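 Mice carrying the transplanted tumor received test compound or vehicle. Survival was recorded in each group, and the value is the treated-group measurement divided by that of the vehicle-treated control group.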

[1] = dose: 50.0 mg/kg/injection, schedule: Q01DX005 (ip), vehicle: saline with Tween-80
[2] = dose: 100.0 mg/kg/injection, schedule: Q01DX005 (ip), vehicle: saline with Tween-80
[3] = dose: 200.0 mg/kg/injection, schedule: Q01DX005 (ip), vehicle: saline with Tween-80
[4] = dose: 6.25 mg/kg/injection, schedule: Q01DX009 (ip), vehicle: saline with Tween-80
[5] = dose: 12.5 mg/kg/injection, schedule: Q01DX009 (ip), vehicle: saline with Tween-80
[6] = dose: 25.0 mg/kg/injection, schedule: Q01DX009 (ip), vehicle: saline with Tween-80
[7] = dose: 3.13 mg/kg/injection, schedule: Q01DX009 (ip), vehicle: saline with Tween-80
[8] = dose: 50.0 mg/kg/injection, schedule: Q01DX005 (ip), vehicle: Klucel (hydroxypropylcellulose) (HPC)
[9] = dose: 100.0 mg/kg/injection, schedule: Q01DX005 (ip), vehicle: Klucel (hydroxypropylcellulose) (HPC)
[10] = dose: 200.0 mg/kg/injection, schedule: Q01DX005 (ip), vehicle: Klucel (hydroxypropylcellulose) (HPC)
[11] = dose: 50.0 mg/kg/injection, schedule: Q01DX005 (ip), vehicle: saline
[12] = dose: 6.25 mg/kg/injection, schedule: Q01DX009 (ip), vehicle: saline
[13] = dose: 12.5 mg/kg/injection, schedule: Q01DX009 (ip), vehicle: saline
[14] = dose: 50.0 mg/kg/injection, schedule: Q01DX009 (ip), vehicle: saline with Tween-80
[15] = dose: 100.0 mg/kg/injection, schedule: Q01DX009 (ip), vehicle: saline with Tween-80
[16] = dose: 200.0 mg/kg/injection, schedule: Q01DX009 (ip), vehicle: saline with Tween-80
[17] = dose: 50.0 mg/kg/injection, schedule: Q01DX009 (ip), vehicle: Klucel (hydroxypropylcellulose) (HPC)
[18] = dose: 100.0 mg/kg/injection, schedule: Q01DX009 (ip), vehicle: Klucel (hydroxypropylcellulose) (HPC)

Measured: T/C

C=C1C(=O)C23CC[C@H]4C(C)(CCC[C@]4(C)C(=O)O)[C@@H]2CCC1C3 (some centres not stated)
inactive: dose: 3.75 mg/kg/injection, schedule: Q01DX005 (ip), vehicle: Klucel (hydroxypropylcellulose) (HPC) 86 % of control | dose: 7.5 mg/kg/injection, schedule: Q01DX005 (ip), vehicle: Klucel (hydroxypropylcellulose) (HPC) 91 % of control | dose: 15.0 mg/kg/injection, schedule: Q01DX005 (ip), vehicle: Klucel (hydroxypropylcellulose) (HPC) 87 % of control | dose: 30.0 mg/kg/injection, schedule: Q01DX005 (ip), vehicle: Klucel (hydroxypropylcellulose) (HPC) 98 % of control

S=c1nc(-c2ccccc2)oc(=NC2CCCCC2)n1C1CCCCC1
inactive: [1] 98 % of control | [2] 101 % of control | [3] 109 % of control

COc1ccc(/C=C/c2ccnc3ccccc23)cc1
inactive: [4] 100 % of control | [5] 104 % of control | [6] 108 % of control

[I][Hg][CH2]C1COCC([CH2][Hg][I])O1.[I][Hg][CH2]C1COCC([CH2][Hg][I])O1 (configuration not stated)
inactive: [7] 109 % of control | dose: 3.13 mg/kg/injection, schedule: Q04DX003 (ip), vehicle: saline with Tween-80 109 % of control | [4] 113 % of control | dose: 6.25 mg/kg/injection, schedule: Q04DX003 (ip), vehicle: saline with Tween-80 86 % of control | [5] 118 % of control | dose: 12.5 mg/kg/injection, schedule: Q04DX003 (ip), vehicle: saline with Tween-80 100 % of control

CN1C(=O)C(=O)N(C)C(=O)C1=O
inactive: [8] 100 % of control | [9] 93 % of control | [10] 103 % of control

O=C1c2c3c(c4c(c2C(=O)c2c5c(c6c(c21)CCCC6)CCCC5)CCCC4)CCCC3
inactive: dose: 7.5 mg/kg/injection, schedule: Q01DX009 (ip), vehicle: saline with Tween-80 99 % of control | dose: 15.0 mg/kg/injection, schedule: Q01DX009 (ip), vehicle: saline with Tween-80 98 % of control | dose: 30.0 mg/kg/injection, schedule: Q01DX009 (ip), vehicle: saline with Tween-80 103 % of control

O=Cc1ccc(N2OC3C(=O)N(c4ccccc4)C(=O)C3C2c2ccc([N+](=O)[O-])cc2)cc1 (configuration not stated)
inactive: [8] 96 % of control | [9] 92 % of control | [10] 97 % of control

CC1(C)N=C(N)N=C(N)N1c1ccc(Cl)cc1Cl
inactive: dose: 12.0 mg/kg/injection, schedule: Q01DX005 (ip), vehicle: saline 102 % of control | dose: 25.0 mg/kg/injection, schedule: Q01DX005 (ip), vehicle: saline 100 % of control | [11] 104 % of control and 98 % of control

Cc1ccc(S(=O)(=O)Nc2ccccc2N(CCNCCOS(=O)(=O)c2ccc(C)cc2)S(=O)(=O)c2ccc(C)cc2)cc1
inactive: dose: 100.0 mg/kg/injection, schedule: Q04DX002 (ip), vehicle: saline with Tween-80 96 % of control | dose: 200.0 mg/kg/injection, schedule: Q04DX002 (ip), vehicle: saline with Tween-80 98 % of control | dose: 400.0 mg/kg/injection, schedule: Q04DX002 (ip), vehicle: saline with Tween-80 91 % of control

O=C1c2cc3c(-c4ccccc4)oc(-c4ccccc4)c3cc2C(=O)c2c(O)ccc(O)c21
inactive: dose: 6.25 mg/kg/injection, schedule: Q01DX005 (ip), vehicle: saline with Tween-80 94 % of control | dose: 12.5 mg/kg/injection, schedule: Q01DX005 (ip), vehicle: saline with Tween-80 94 % of control | dose: 25.0 mg/kg/injection, schedule: Q01DX005 (ip), vehicle: saline with Tween-80 94 % of control | [3] 99 % of control

N=c1ccn2c(n1)OC1C(O)C(CCl)OC12 (configuration not stated)
inactive: [12] 108 % of control | [13] 111 % of control | dose: 25.0 mg/kg/injection, schedule: Q01DX009 (ip), vehicle: saline 106 % of control and 92 % of control | dose: 50.0 mg/kg/injection, schedule: Q01DX009 (ip), vehicle: saline 103 % of control and 106 % of control | dose: 100.0 mg/kg/injection, schedule: Q01DX009 (ip), vehicle: saline 100 % of control and 107 % of control | dose: 200.0 mg/kg/injection, schedule: Q01DX009 (ip), vehicle: saline 110 % of control and 117 % of control

O=C(NO)Nc1cc(Cl)cc(Cl)c1
inactive: dose: 60.0 mg/kg/injection, schedule: Q01DX005 (ip), vehicle: saline with Tween-80 114 % of control | dose: 120.0 mg/kg/injection, schedule: Q01DX005 (ip), vehicle: saline with Tween-80 114 % of control

COc1ccc(C2(C3NCCC4=C3CCCC4)CC2)cc1 (configuration not stated)
inactive: [8] 97 % of control | [9] 100 % of control

C1OC2CC1CO2
inactive: [14] 100 % of control | [15] 103 % of control | [16] 103 % of control

COCc1cccnc1
inactive: dose: 25.0 mg/kg/injection, schedule: Q01DX005 (ip), vehicle: Klucel (hydroxypropylcellulose) (HPC) 97 % of control | [8] 93 % of control | [9] 88 % of control

O=S(=O)(O)O.O=S(=O)([O-])[O-].O=[N+]([O-])O.[Co+3].[Co+3].[NH2-].[NH2-].[NH2-].[NH2-].[NH2-].[NH2-].[NH2-].[NH2-].[NH2-]
inactive: dose: 1.0 mg/kg/injection, schedule: Q01DX009 (ip), vehicle: saline 98 % of control | dose: 2.0 mg/kg/injection, schedule: Q01DX009 (ip), vehicle: saline 93 % of control

OC1(c2ccccc2)CCCCCC1
inactive: [6] 113 % of control | [14] 106 % of control | [15] 106 % of control and 108 % of control

CN(C)[C@@H]1C(=O)C(C(=O)NCNCCCC(=O)O)=C(O)[C@@]2(O)C(=O)C3=C(O)c4c(O)cccc4[C@@](C)(O)[C@H]3C[C@@H]12
inactive: dose: 100.0 mg/kg/injection, schedule: Q04DX003 (ip), vehicle: saline with Tween-80 104 % of control | dose: 200.0 mg/kg/injection, schedule: Q04DX003 (ip), vehicle: saline with Tween-80 100 % of control | dose: 400.0 mg/kg/injection, schedule: Q04DX003 (ip), vehicle: saline with Tween-80 95 % of control

CCCc1c(C)nc2scc(-c3ccccc3)n2c1=O
inactive: [14] 105 % of control | [15] 99 % of control | [16] 99 % of control

NC(N)=NC(N)=Nc1ccc(-c2ccc(N=C(N)N=C(N)N)cc2)cc1
inactive: [7] 108 % of control | [4] 106 % of control

NCCCCNC(c1ccccc1)C(O)c1ccccc1 (configuration not stated)
inactive: [17] 100 % of control | [18] 99 % of control

COc1ccc(CS(=O)(=O)c2cnc(N/N=C/c3ccc([N+](=O)[O-])o3)nc2N)c(OC)c1
inactive: dose: 100.0 mg/kg/injection, schedule: Q01DX001 (ip), vehicle: saline 94 % of control | dose: 200.0 mg/kg/injection, schedule: Q01DX001 (ip), vehicle: saline 94 % of control | dose: 400.0 mg/kg/injection, schedule: Q01DX001 (ip), vehicle: saline 92 % of control

COc1ccc2c(c1)CCC1C2=CCC2C(=O)OC(=O)C21C (configuration not stated)
inactive: [1] 103 % of control | [2] 108 % of control

Nc1ccncc1N
inactive: dose: 2.5 mg/kg/injection, schedule: Q01DX009 (ip), vehicle: saline 94 % of control | dose: 3.12 mg/kg/injection, schedule: Q01DX009 (ip), vehicle: saline 101 % of control | dose: 5.0 mg/kg/injection, schedule: Q01DX009 (ip), vehicle: saline 106 % of control | [12] 97 % of control | dose: 10.0 mg/kg/injection, schedule: Q01DX009 (ip), vehicle: saline 100 % of control | [13] 103 % of control | dose: 20.0 mg/kg/injection, schedule: Q01DX009 (ip), vehicle: saline 93 % of control

CC(N)/C(N)=N/O (configuration not stated)
inactive: [11] 99 % of control | dose: 100.0 mg/kg/injection, schedule: Q01DX005 (ip), vehicle: saline 100 % of control | dose: 200.0 mg/kg/injection, schedule: Q01DX005 (ip), vehicle: saline 110 % of control

O=C(N/N=C\c1ccc(O)cc1O)C(=O)N/N=C\c1ccc(O)cc1O
inactive: [17] 98 % of control | [18] 105 % of control | dose: 200.0 mg/kg/injection, schedule: Q01DX009 (ip), vehicle: Klucel (hydroxypropylcellulose) (HPC) 100 % of control

COC(=O)/C(C#N)=C/N(C)c1ccc([N+](=O)[O-])cc1
inactive: [14] 100 % of control | [15] 104 % of control | [16] 92 % of control
